Measured values taken from US6084072A, “Purified lectin and methods of use” (The Regents of the University of Michigan, priority 1993, dated 2000).
Entries after “also recorded” stand apart in the source; their conditions may differ. Read-outs that look alike come from different tables or passages of the source.

Legend:
[1] = target: T1, amaranthin (Amaranthus caudatus, UniProt Q71QF2); test: Precipitation of amaranthin by glycoproteins and glycoconjugates, native or glycosidase treated; assay type: binding; details: for precipitation of amaranthin, in words: untreated glycoprotein or glycoconjugate, 80 μg amaranthin; for Precipitate formation with amarantin: Glycosidase: β-Galactosidase
Description: Glycosidase digestions, and in particular exo-β-galactosidase digestions were carried out for 9 hours at 37° C. in 0.1 M sodium citrate, pH 4.3 using 0.1 unit of enzyme/μmol of terminal galactosyl group. Endo-α-N-acetylgalactosaminidase treatment of asialo-ovine submaxillary mucin was done as described in Sadler, J. E., Rearick, J. L., Paulson, J. C., and Hill, R. L. (1979). GSC Exo-α-N-acetylgalactosaminidase digestion of asialo-ovine submaxillary mucin was carried out according to the recommendations of Genzyme of Boston, Mass. Glycoproteins were analyzed for carbohydrate composition, before and after glycosidase treatment, as described.
(§1) Precipitation assays were conducted in 1.5 ml centrifuge tubes by the method of So and Goldstein. Indicated amounts of glycoprotein were added to 80 μg of amaranthin, and the total volume was adjusted to 250 μl with phosphate buffered saline. The tubes were incubated at 37° C. and then kept at 4° C. for 2 days. The precipitates were centrifuged, washed with cold Phosphate buffered saline, dissolved in 0.05 N NaOH and analyzed for protein by the method of Lowery et al. using bovine serum albumin as the standard. Hapten inhibition assays were carried out using 80 μg of amaranthin, 5 μg of asialo-ovine submaxillary mucins, and the indicated sugar concentrations. Inhibition was determined relative to the amount of precipitate formed in the control with no sugar added. All precipitation assays were conducted in duplicate to bring the tolerance within ±5% and the amount of precipitate formed average.

[2] = target: T2, PNA (Arachis hypogaea, UniProt P02872); test: Precipitation reactions with PNA; assay type: binding
T2 construct: purchased E.Y. Laboratories, San Mateo, Calif; (donated by Dr. A. Chu)
T2 sequence (P02872 24-273): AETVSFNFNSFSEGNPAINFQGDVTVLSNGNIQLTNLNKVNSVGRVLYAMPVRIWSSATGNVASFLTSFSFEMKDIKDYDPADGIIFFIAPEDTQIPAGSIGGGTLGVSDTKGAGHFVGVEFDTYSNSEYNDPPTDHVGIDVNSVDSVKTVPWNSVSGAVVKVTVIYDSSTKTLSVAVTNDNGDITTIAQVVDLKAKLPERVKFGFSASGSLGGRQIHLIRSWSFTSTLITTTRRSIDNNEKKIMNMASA
Description: (§2) Precipitation reactions with PNA were carried out similarly, except that 40 μg of PNA was used. Hapten inhibition studies with PNA used 40 μg of PNA, 6 μg of asialoglycophorin, and the indicated sugar concentrations.

[3] = target: T2, PNA; details: reported by Pereira; cited from earlier work
[4] = target: T1, amaranthin; test: Hapten inhibition of amaranthin/asialo-ovine submaxillary mucin precipitation; assay type: binding; details: for Relative Inhibition potency ACA: N-Acetylgalactosamine = 1
Description: as §1

[5] = target: T2, PNA; test: Hapten inhibition of PNA/asialoglycophorin precipitation; assay type: binding; details: for Relative Inhibition potency PNA: Galactose = 1, 40 μg PNA, 6 μg asialoglycophorin
Description: as §2

[6] = target: T1, amaranthin; test: Elution of amaranthin from Synsorb-T column; assay type: binding
Source text: The unbound material was washed from the Synsorb-T beads with phosphate buffered saline (PBS), and the A. caudatus lectin was eluted with 0.1 N acetic acid, pH 3. The Synsorb-T beads are fine particles of diatomaceous earth, or sand material bonded to the disaccharide Galβ1,3GalNAcα-O--(CH2)8 CO. […] Thus, it was necessary to reapply the unbound material to the affinity column to obtain the remaining lectin.
Elution of amaranthin from the affinity columns with non-specific agents was employed due to the expense and limited availability of Galβ1,3GalNAc, the best binding ligand. GalNAc (0.5 M) was effective in displacing amaranthin from the Synsorb-T matrix. However, when amaranthin (0.9 mg) was applied to a small Synsorb-T column (0.58 ml), it was observed that 100 μM Galβ1,3GalNAcα-O-benzyl eluted the lectin.

[7] = target: T3, Artocarpus intergrifolia lectin (Artocarpus integer, UniProt P18670); details: cited from earlier work
T3 construct: host or cells: Artocarpus integrifolia seeds

[8] = target: T2, PNA; details: reported by Lotan, Pereira; cited from earlier work

T1 sequence (Q71QF2 entry or part of it): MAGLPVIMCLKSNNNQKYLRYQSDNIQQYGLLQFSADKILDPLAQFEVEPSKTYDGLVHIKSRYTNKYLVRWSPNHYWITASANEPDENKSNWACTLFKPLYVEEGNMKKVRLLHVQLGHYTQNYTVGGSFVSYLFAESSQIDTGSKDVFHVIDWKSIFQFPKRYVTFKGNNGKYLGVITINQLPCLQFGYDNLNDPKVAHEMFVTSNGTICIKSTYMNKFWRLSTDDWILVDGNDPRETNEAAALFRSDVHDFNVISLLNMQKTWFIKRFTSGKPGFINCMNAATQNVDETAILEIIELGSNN
T3 sequence (P18670 whole entry): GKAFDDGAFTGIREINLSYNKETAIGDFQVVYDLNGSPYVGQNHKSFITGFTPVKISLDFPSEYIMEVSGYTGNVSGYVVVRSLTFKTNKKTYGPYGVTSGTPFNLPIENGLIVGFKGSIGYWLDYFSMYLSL
T3 sequence (P18673 whole entry partner): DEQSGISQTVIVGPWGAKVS

Row | Compound | precipitation of amaranthin, in words [1] | IC50 [4] [µM] | Relative Inhibition potency PNA [5] | Relative Inhibition potency ACA [4] | other results
1 | NeuAcα2,3Galβ1,3GalNAcα-OBSA | good precipitating agents | – | – | – | precipitation of PNA, in words [2]: not precipitated
2 | asialo-α1 -acidglycoprotein: desialylated α1-acid glycoprotein | did not precipitate amaranthin | – | – | – | precipitation of / reaction with PNA, in words [3]: precipitated by
3 | laminin | did not precipitate amaranthin | – | – | – | –
4 | CC(=O)N[C@H]1C(O)O[C@H](CO)[C@H](O)[C@@H]1O (stereo partly shown) [N-Acetylgalactosamine] | – | 790 | < 0.4 | – | times less potent than Galβ1,3GalNAcα-O--R (α-linked T-antigen disaccharides) ([4]; inhibitor of amaranthin): 350; inhibition of amaranthin/AOSM precipitation, in words ([4]; listed as GalNAc): only monosaccharide found to inhibit; also recorded: inhibited by GalNAc; concentration effective in displacing amaranthin from the Synsorb-T matrix [6]: 0.5 M
5 | Galβ,3GalNAcα-O-BSA | good precipitating agents | – | – | – | precipitation of amaranthin, in words ([1]; listed as Galβ1,3GalNAcα-O-BSA): can be precipitated by; precipitation of PNA, in words [2]: react equally well
6 | CC(=O)N[C@H]1C(O)O[C@H](CO)[C@H](O)[C@@H]1O[C@@H]1O[C@H](CO)[C@H](O)[C@H](O)[C@H]1O (stereo partly shown) [Galβ1,3GalNAc] | – | 3.4 | – | 232 | times more potent than GalNAc [7]: 37; times more potent than galactose [7]: 100
7 | Galβ1,3GalNAcβ-O-BSA | – | – | – | – | precipitation of PNA, in words [2]: react equally well
8 | CO[C@H]1[C@@H](O)[C@@H](CO)O[C@@H](O[C@H]2[C@@H](O)[C@@H](CO)O[C@H](OCc3ccccc3)[C@@H]2NC(C)=O)[C@@H]1O [3-O-Methyl Galβ1,3GalNAcα-O-benzyl] | – | 2 | < 10 | 395 | –
9 | CC(=O)N[C@H]1[C@@H](OCc2ccccc2)O[C@H](CO)[C@H](O)[C@@H]1O[C@@H]1O[C@H](CO)[C@H](O)[C@H](O)[C@H]1O [Galβ1,3GalNAcα-O-benzyl] | – | 1.6 | 50 | 494 | concentration that eluted the lectin ([6]; 0.9 mg amaranthin on 0.58 ml Synsorb-T column): 100 µM
10 | Galβ1,3[NeuAcα2,6]GalNAcα-O-BSA | good precipitating agents; also recorded: can precipitate amaranthin | – | – | – | –
11 | CC(=O)N[C@H]1[C@@H](OCc2ccccc2)O[C@H](CO)[C@H](O)[C@@H]1O[C@@H]1O[C@H](C)[C@H](O)[C@H](O)[C@H]1O [D-Fubcβ1,3GalNAcα-O-benzyl] | – | 1.9 | 11 | 416 | inhibition of amaranthin/AOSM precipitation, in words [4]: very good inhibitor
12 | Asialofetuin: desialylated fetuin | precipitated a small amount of amaranthin; also recorded: weak precipitation reaction | – | – | – | –
13 | CC(=O)N[C@H]1C(O)O[C@H](CO)[C@@H](O[C@@H]2O[C@H](CO)[C@H](O)[C@H](O)[C@H]2O)[C@@H]1O (stereo partly shown) [Galβ1,4GlcNAc] | – | – | – | < 0.008 | inhibition of PNA, in words [8]: rather good inhibitors
14 | Asialo-glycopeptide Mt: NH2-terminal 39 amino acids of asialoglycophorin with 12 Galβ1,3GalNAcα-O residues and one N-linked oligosaccharide (LSTTEVAMHTSTSSSVTKSYISSQTNDTHKRDTYAATPR; desialylated glycans; UniProt P02724 20-58, looked up, fragment) | reacted strongly; also recorded: reacts very well with amaranthin | – | – | – | Precipitate formation with amarantin [1]: No; Precipitate formation with amarantin ([1]; listed as asialo-glycopeptide Mt): reactivity was eliminated; also recorded: no longer precipitates
15 | bovine submaxillary mucin | did not form precipitates | – | – | – | –
16 | CC(=O)N[C@H]1[C@H](O[C@H]2[C@@H](O)[C@@H](CO)O[C@@H](O[C@H]3[C@@H](O)[C@@H](CO)O[C@H](OCc4ccccc4)[C@@H]3NC(C)=O)[C@@H]2O)O[C@H](CO)[C@@H](O)[C@@H]1O [GlcNAcβ1,3Galβ1,3GalNAcα-O-benzyl] | – | 25 | < 10 | 32 | decrease of potency by a factor, against Galβ1,3GalNAcα-O-benzyl ([4]; C'-3 substitution with GlcNAc): 10; fold lower reactivity compared with NeuAcα2,3Galβ1,3GalNAcα-O ([4]; amaranthin): 10
17 | CO[C@H]1O[C@H](CO)[C@H](O)[C@H](O[C@@H]2O[C@H](CO)[C@H](O)[C@H](O)[C@H]2O)[C@H]1O [Galβ1,3Galα-O-CH3] | – | – | 4.2 | < 0.8 | inhibition of amaranthin/AOSM precipitation, in words [4]: very poor inhibitors; inhibition of PNA, in words [5]: rather good inhibitors
18 | fetuin: fetuin, three O-linked oligosaccharide chains per molecule | did not precipitate amaranthin; also recorded: does not precipitate fetuin | – | – | – | –
19 | CO[C@@H]1O[C@H](CO)[C@H](O)[C@H](O)[C@H]1O [Methyl β-galactoside] | – | – | 0.8 | < 0.003 | –
